The IC50 is the point on the concentration scale where inhibition reaches its midpoint.

Where only a bound is given, the exact number is not on record here.

Assay [1] concerns E. coli 190317. Briefly: MIC of compound alone, broth microdilution. The note with it: strain 190317; compound alone. The class given is cell-based. In a few lines: (§1)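 Visual end point: lowest concentration that blocked growth. Conditions: cation-adjusted Mueller-Hinton broth, 5×10^5 cfu/mL final inoculum of log-phase bacteria, 16-20 h, 35° C, ambient atmosphere.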
(Dilution methods test growth across graded concentrations, often in twofold steps.)

Assay [2] deals with K. pneumoniae BAA-1898. Briefly: MIC of compound alone, broth microdilution. The class given is cell-based. The conditions noted are these: strain BAA-1898; compound alone. In outline:
as §1

For assay [3], the system named is E. cloacae P99. Briefly: MIC of compound alone, broth microdilution. The class given is cell-based. The conditions noted are these: strain P99; compound alone. In outline: as §1
Assay [4] has as its system K. pneumoniae 6299. In words: MIC of compound alone, broth microdilution. The class given is cell-based. The note with it: strain 6299; compound alone. In outline: as §1
Assay [5] has as its system P. aeruginosa CIP107051. In words: MIC of compound alone, broth microdilution. The class given is cell-based. The conditions noted are these: strain CIP107051; compound alone. In a few lines: as §1
The target of the next assay is OXA-48 (Klebsiella pneumoniae, UniProt Q6XEC0). The conditions noted are these: read-out: IC50 β-lactamase OXA-48; class (D); nitrocefin 200 μM, 30-min pre-incubation, enzyme 0.3 nM.
The target of the next assay is KPC-2 (Klebsiella pneumoniae, UniProt Q9F663). The conditions noted are these: read-out: IC50 β-lactamase KPC-2; class (A); nitrocefin 200 μM, 30-min pre-incubation, enzyme 1 nM.
Another assay deals with OXA-1 (Escherichia coli, UniProt P13661). The conditions noted are these: read-out: IC50 β-lactamase OXA-1; class (D); nitrocefin 200 μM, 30-min pre-incubation, enzyme 0.2 nM.
A further assay addresses CMY-37 (Citrobacter freundii, UniProt P05193). The conditions noted are these: read-out: IC50 β-lactamase CMY-37; class (C); nitrocefin 200 μM, 30-min pre-incubation, enzyme 0.2 nM.
Another assay addresses TEM-1 (Escherichia coli, UniProt P62593). The note with it: read-out: IC50 β-lactamase TEM-1; class (A); nitrocefin 200 μM, 30-min pre-incubation, enzyme 0.1 nM.
In the next assay the target is OXA-15 (Pseudomonas aeruginosa, UniProt Q51574). The conditions noted are these: read-out: IC50 β-lactamase OXA-15; class (D); nitrocefin 200 μM, 30-min pre-incubation, enzyme 0.4 nM.
In assay [6] the test system is E. coli 190317. Briefly: MIC of ceftazidime (CAZ) at fixed concentration of compound (synergy), broth microdilution. In kind it is cell-based. The note with it: strain 190317; MIC of CAZ, compound fixed at 4 μg/mL. As to the method: (§2) Log phase bacterial suspensions were adjusted to a final density of 5×10^5 cfu/mL in cation-adjusted Mueller-Hinton broth (Becton-Dickinson) and added to each well (98 μL). Microplates were incubated for 16-20 h at 35° C. in ambient air. The MIC of the compounds was defined as the lowest concentration of said compounds that prevented bacterial growth as read by visual inspection.

Assay [7] concerns K. pneumoniae BAA-1898. Described as above. The class given is cell-based. The note with it: strain BAA-1898; MIC of CAZ, compound fixed at 4 μg/mL. As to the method:
as §2

Assay [8] concerns E. cloacae P99. The assay is described as above. In kind it is cell-based. The conditions noted are these: strain P99; MIC of CAZ, compound fixed at 4 μg/mL. As to the method:
as §2

The test system of assay [9] is K. pneumoniae 6299. Described as above. The class given is cell-based. The note with it: strain 6299; MIC of CAZ, compound fixed at 4 μg/mL. As to the method: as §2
Assay [10] deals with P. aeruginosa CIP107051. Described as above. In kind it is cell-based. The conditions noted are these: strain CIP107051; MIC of CAZ, compound fixed at 4 μg/mL. As to the method: as §2
A further assay concerns the target AmpC (P99) (Enterobacter cloacae, UniProt P05364). The conditions noted are these: read-out: IC50 β-lactamase AmpC (P99); class (C); nitrocefin 200 μM, 30-min pre-incubation, enzyme 0.2 nM.
Another assay deals with OXA-11 (Pseudomonas aeruginosa, UniProt Q06778). The conditions noted are these: read-out: IC50 β-lactamase OXA-11; class (D); nitrocefin 200 μM, 30-min pre-incubation, enzyme 1.2 nM.
The target in the next assay is SHV-1 (Klebsiella pneumoniae, UniProt P0AD64). The note with it: read-out: IC50 β-lactamase SHV-1; class (A); nitrocefin 200 μM, 30-min pre-incubation, enzyme 0.075 nM.
For another assay, the target named is CTX-M-15 (Escherichia coli, UniProt Q9EXV5). The note with it: read-out: IC50 β-lactamase CTX-M-15; class (A); nitrocefin 200 μM, 30-min pre-incubation, enzyme 0.4 nM.
The target of the next assay is AmpC (PAE) (Pseudomonas aeruginosa, UniProt P24735). The conditions noted are these: read-out: IC50 β-lactamase AmpC (PAE); class (C); nitrocefin 200 μM, 30-min pre-incubation, enzyme 0.4 nM.

`O=C1N2CC(n3cc(-c4nccs4)nn3)=CC(C2)N1OS(=O)(=O)[O-].[Na+]` (stereo not drawn) [Example 55, sodium [7-oxo-3-(4-thiazol-2-yltriazol-1-yl)-1,6-diazabicyclo[3.2.1]oct-3-en-6-yl]sulfate]: the “MIC compounds of the invention alone” value in the assay with E. coli 190317 [1], in the assay with K. pneumoniae BAA-1898 [2], with E. cloacae P99 [3], in the assay on K. pneumoniae 6299 [4] and with P. aeruginosa CIP107051 [5] was over 32 µg/mL in each case. Also, the concentration for half-maximal inhibition (IC50) on OXA-48 stood at 0.27 nM; at KPC-2, 0.82 nM; at OXA-1 it was 26 nM; on CMY-37, 35 nM; on TEM-1, 0.14 nM; at OXA-15, 3.4 nM. Besides, the concentration for half-maximal inhibition (IC50) on AmpC (P99) is 6.3 nM; at OXA-11, 25 nM; at SHV-1, 0.61 nM; at CTX-M-15, 0.41 nM; on AmpC (PAE), 230 nM. The “MIC combination of CAZ and compounds of the invention at 4 μg/mL” value (“MIC combination” for short) in the assay on E. coli 190317 [6] was determined as 0.25 µg/mL; in the assay on K. pneumoniae BAA-1898 [7], 1 µg/mL; in the assay on E. cloacae P99 [8] it was 8 µg/mL; in the assay with K. pneumoniae 6299 [9], 4 µg/mL; in the assay on P. aeruginosa CIP107051 [10], 8 µg/mL.
`O=C1N2CC(n3cc(S(=O)(=O)NCCO)cn3)=CC(C2)N1OS(=O)(=O)[O-].[Na+]` (stereo not drawn) [Example 74, sodium [3-[4-(2-hydroxyethylsulfamoyl)pyrazol-1-yl]-7-oxo-1,6-diazabicyclo[3.2.1]oct-3-en-6-yl]sulfate]: the “MIC compounds of the invention alone” value is 8 µg/mL with E. coli 190317 [1]; 16 µg/mL in the assay with K. pneumoniae BAA-1898 [2]; 16 µg/mL in the assay with E. cloacae P99 [3]; 16 µg/mL in the assay with K. pneumoniae 6299 [4]; over 32 µg/mL with P. aeruginosa CIP107051 [5]. Further, the half-maximal inhibitory concentration (IC50) stood at 2.9 nM on OXA-48; 3 nM on KPC-2; 22 nM at OXA-1; 25 nM on CMY-37; 0.34 nM on TEM-1; 48 nM on OXA-15. The IC50 at AmpC (P99) turned out to be 9.5 nM; at OXA-11, 20 nM; on SHV-1 it was 2.2 nM; at CTX-M-15 it was 1.1 nM; at AmpC (PAE) it was 110 nM. For the same compound, the “MIC combination” value with E. coli 190317 [6] is at most 0.25 µg/mL; in the assay on K. pneumoniae BAA-1898 [7] it was 0.25 µg/mL; in the assay with E. cloacae P99 [8], 0.5 µg/mL; in the assay with K. pneumoniae 6299 [9], at most 0.25 µg/mL; in the assay with P. aeruginosa CIP107051 [10] it was 8 µg/mL.
Consider `O=C1N2CC(n3cc(N4CCOCC4)cn3)=CC(C2)N1OS(=O)(=O)[O-].[Na+]` (stereo not drawn) [Example 20], for which the “MIC compounds of the invention alone” value in the assay with E. coli 190317 [1], in the assay with K. pneumoniae BAA-1898 [2], with E. cloacae P99 [3], with K. pneumoniae 6299 [4] and with P. aeruginosa CIP107051 [5] was over 32 µg/mL each time. Also, the half-maximal inhibitory concentration (IC50) is 68 nM on OXA-48; 120 nM on KPC-2; 6200 nM at OXA-1; 140 nM at CMY-37; 1.3 nM on TEM-1; 140 nM at OXA-15. In addition, the concentration for half-maximal inhibition (IC50) on AmpC (P99) stood at 230 nM; on OXA-11 it was 7100 nM; at SHV-1, 5.1 nM; on CTX-M-15 it was 3 nM; at AmpC (PAE), 910 nM. In addition, the “MIC combination” value in the assay with E. coli 190317 [6] is 128 µg/mL; in the assay with K. pneumoniae BAA-1898 [7] it was over 128 µg/mL; in the assay on E. cloacae P99 [8], over 128 µg/mL; with K. pneumoniae 6299 [9], over 128 µg/mL; in the assay on P. aeruginosa CIP107051 [10] it was over 128 µg/mL.
With `CC(=O)Nc1cnn(C2=CC3CN(C2)C(=O)N3OS(=O)(=O)[O-])c1.[Na+]` (stereo not drawn) [Example 21, sodium [3-(4-acetamidepyrazol-1-yl)-7-oxo-1,6-diazabicyclo[3.2.1]oct-3-en-6-yl]sulfate], the “MIC compounds of the invention alone” value is 16 µg/mL with E. coli 190317 [1]; over 32 µg/mL in the assay with K. pneumoniae BAA-1898 [2]; over 32 µg/mL in the assay with E. cloacae P99 [3]; over 32 µg/mL in the assay on K. pneumoniae 6299 [4]; over 32 µg/mL in the assay with P. aeruginosa CIP107051 [5]. In addition, the IC50 on OXA-48 amounted to 45 nM; at KPC-2, 270 nM; on OXA-1, 2100 nM; on CMY-37, 99 nM; at TEM-1, 6.1 nM; on OXA-15, 290 nM. For the same compound, the IC50 was 230 nM at AmpC (P99); 1400 nM on OXA-11; 24 nM on SHV-1; 3.7 nM on CTX-M-15; 320 nM on AmpC (PAE). Besides, the “MIC combination” value was determined as 0.25 µg/mL with E. coli 190317 [6]; 64 µg/mL in the assay with K. pneumoniae BAA-1898 [7]; 16 µg/mL with E. cloacae P99 [8]; 4 µg/mL in the assay on K. pneumoniae 6299 [9]; 4 µg/mL in the assay with P. aeruginosa CIP107051 [10].
On to `NCCNC(=O)Cc1ccn(C2=CC3CN(C2)C(=O)N3OS(=O)(=O)[O-])n1.O=C(O)C(F)(F)F.[Na+]` (stereo not drawn) [Example 48, sodium and 2,2,2-trifluoroacetate [3-[3-[2-(2-ammoniumethylamino)-2-oxo-ethyl]pyrazol-1-yl]-7-oxo-1,6-diazabicyclo[3.2.1]oct-3-en-6-yl]sulfate], for which the “MIC compounds of the invention alone” value in the assay on E. coli 190317 [1] was 4 µg/mL; in the assay on K. pneumoniae BAA-1898 [2] it was over 32 µg/mL; with E. cloacae P99 [3], 32 µg/mL; with K. pneumoniae 6299 [4], over 32 µg/mL; in the assay with P. aeruginosa CIP107051 [5] it was over 32 µg/mL. The 50% inhibitory concentration (IC50) on OXA-48 was 36 nM; on KPC-2 it was 130 nM; on OXA-1, 940 nM; at CMY-37, 80 nM; on TEM-1, 1.4 nM; on OXA-15 it was 510 nM. Further, the IC50 at AmpC (P99) was 110 nM; on OXA-11 it was 200 nM; at SHV-1, 5.3 nM; on CTX-M-15 it was 2.4 nM; at AmpC (PAE) it was 310 nM. Further, the “MIC combination” value with E. coli 190317 [6] is under 0.25 µg/mL; with K. pneumoniae BAA-1898 [7] it was 4 µg/mL; in the assay on E. cloacae P99 [8], 0.5 µg/mL; with K. pneumoniae 6299 [9], 0.25 µg/mL; in the assay on P. aeruginosa CIP107051 [10] it was 4 µg/mL.

(Values after US10722520B2, “Heterocyclic compounds and their use in preventing or treating bacterial infections” (MUTABILIS, priority 2016, dated 2020).)
